Test [1] concerns the target T1, Cbl-b (Homo sapiens, UniProt Q13191). Description: Cbl-b inhibition assay (Cbl-b activity assay, FRET, Biological Example 1; 100 mM NaCl, 60 nM Src kinase). In kind it is biochemical. As to conditions: upper bound stated in text lists; read-out: IC50 values in the Cbl-b inhibition assay of Biological Example 1. In outline:
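Inhibitor activity is measured as reduced terbium-to-fluorescein FRET between streptavidin-terbium on biotinylated Cbl-b and Bodipy-fluorescein ubiquitin carried by an irreversible UbcH5B-Ub conjugate, binding of which depends on Src phosphorylation of Cbl-b.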

The subject of test [2] is T-cell. As to the kind of experiment: IL-2 secretion from T-cells co-stimulated with anti-CD3 and anti-CD28 antibody (Biological Example 2). The test is classed as cell-based, human. As to conditions: Homo sapiens, T-cell, primary human total T-cells, baseline = anti-CD3/anti-CD28 stimulated cells without inhibitor, read-out: IL-2 secretion, Anti-CD3/Anti-CD28 stimulation, fold change over baseline; for fold induction at 0.3 µM: 0.3 μM compound; for fold induction at 1 µM: 1 μM compound; for fold induction at 4 µM: 4 μM compound. In outline:
(§1)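 No assay protocol given; T-cells stimulated with anti-CD3 alone or anti-CD3 plus anti-CD28, with or without Cbl-b inhibitor. Activation read as IL-2 secretion or CD25 surface staining, expressed as fold over baseline from uninhibited cells […].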

Test [3] deals with T-cell. Description: CD25 cell surface staining on T-cells co-stimulated with anti-CD3 and anti-CD28 antibody (Biological Example 2). The test is classed as cell-based, human. The settings on record: Homo sapiens, T-cell, primary human total T-cells, baseline = anti-CD3/anti-CD28 stimulated cells without inhibitor, read-out: CD25 staining, Anti-CD3/Anti-CD28 stimulation, fold change over baseline; for fold induction at 0.3 µM: 0.3 μM compound; for fold induction at 1 µM: 1 μM compound; for fold induction at 4 µM: 4 μM compound. In outline:
as §1

In test [4] the target is T1, Cbl-b. As to the kind of experiment: Cbl-b activity assay (Cbl-b inhibition assay), TR-FRET of Cbl-b interaction with UbcH5B-Ub. The settings on record: assay buffer with 100 mM NaCl, 60 nM Src kinase; read-out: Cbl-b activity IC50. The test is classed as biochemical. In outline:
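TR-FRET readout of Cbl-b binding to Bodipy-fluorescein N-terminally labeled Ub conjugated to UbcH5B C85K, measured with compound present. After compound incubation, 60 nM Src kinase with 1 mM ATP and 5 mM MgCl2 (final) was added for 1.5 h, then a further 1 h incubation; asterisked values used 50 mM NaCl buffer and 30 nM Src.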

Test [5] has as its system T-cell. As to the kind of experiment: IL-2 secretion from T-cells stimulated with anti-CD3 antibody alone (Biological Example 2). In kind it is cell-based. As to conditions: primary human total T-cells, read-out: IL-2 secretion, Anti-CD3 stimulation, fold change over baseline; for fold induction at 1 µM: 1 μM compound; for fold induction at 8 µM: 8 μM compound.
The test system of test [6] is T-cell. Description: CD25 cell surface staining on T-cells stimulated with anti-CD3 antibody alone (Biological Example 2). As to conditions: primary human total T-cells, baseline = anti-CD3/anti-CD28 stimulated cells without inhibitor, read-out: CD25 staining, Anti-CD3 stimulation, fold change over baseline; for fold induction at 1 µM: 1 μM compound; for fold induction at 8 µM: 8 μM compound. The test is classed as cell-based.

T1 sequence (Q13191 36-427): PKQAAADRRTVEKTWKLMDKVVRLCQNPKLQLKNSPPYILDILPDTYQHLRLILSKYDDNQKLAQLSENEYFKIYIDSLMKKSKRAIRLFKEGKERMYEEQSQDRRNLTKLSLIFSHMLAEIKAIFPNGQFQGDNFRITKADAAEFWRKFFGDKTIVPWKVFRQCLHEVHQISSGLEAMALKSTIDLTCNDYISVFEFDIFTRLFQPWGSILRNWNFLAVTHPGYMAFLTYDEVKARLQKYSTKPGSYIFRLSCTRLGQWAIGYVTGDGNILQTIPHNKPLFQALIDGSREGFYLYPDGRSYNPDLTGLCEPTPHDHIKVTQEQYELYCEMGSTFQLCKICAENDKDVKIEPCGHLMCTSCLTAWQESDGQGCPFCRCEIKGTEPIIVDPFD

On to `Cn1cnnc1C(F)(F)[C@](C)(F)c1cccc(N2Cc3c(cc(CN4CC(C#N)C4)cc3C(F)(F)F)C2=O)c1` [Compound 456, (R)-1-((3-oxo-2-(3-(1,1,2-trifluoro-1-(4-methyl-4H-1,2,4-triazol-3-yl)propan-2-yl)phenyl)-7-(trifluoromethyl)isoindolin-5-yl)methyl)azetidine-3-carbonitrile], for which the IC50 at Cbl-b [1] was no more than 300 nM; on Cbl-b [4] it was 100 to 300 nM. Also, the fold induction at 0.3 µM with T-cell [2] fell in the range of 1.01 to 2.5; in the test with T-cell [3], 1.01 to 1.3. Further, the fold induction at 1 µM fell in the range of 2.51 to 5 with T-cell [2], 1.01 to 1.3 with T-cell [3], 0.051 to 0.1 in the test with T-cell [5] and 0.801 to 1 in the test on T-cell [6]. Moreover, the results for the fold induction at 4 µM with T-cell [2] and in the test with T-cell [3] were 5 to 7.5 and 1.01 to 1.3, respectively. In addition, the results for the fold induction at 8 µM with T-cell [5] and in the test with T-cell [6] were 0.101 to 0.15 and greater than 1, respectively.
Consider `C[C@H](c1cc2c(c(C(F)(F)F)c1)CN(c1cccc([C@@](C)(F)C(F)(F)c3nncn3C)c1)C2=O)N1CC[C@H](F)C1` [Compound 459, 6-((R)-1-((S)-3-fluoropyrrolidin-1-yl)ethyl)-2-(3-((R)-1,1,2-trifluoro-1-(4-methyl-4H-1,2,4-triazol-3-yl)propan-2-yl)phenyl)-4-(trifluoromethyl)isoindolin-1-one], for which the results for the IC50 at Cbl-b [1] and at Cbl-b [4] were no more than 100 nM and less than 100 nM, respectively. Further, the fold induction at 0.3 µM in the test on T-cell [2] was 2.51 to 5; in the test on T-cell [3], 1.01 to 1.3. The fold induction at 1 µM in the test on T-cell [2] was greater than 7.5; with T-cell [3] it was 1.31 to 1.5; in the test with T-cell [5], greater than 0.201; with T-cell [6], greater than 1. Further, the fold induction at 4 µM in the test on T-cell [2] is greater than 7.5; in the test on T-cell [3], 1.51 to 1.75. The fold induction at 8 µM was greater than 0.201 in the test on T-cell [5] and greater than 1 with T-cell [6].
As to `C[C@@H](c1cc2c(c(C(F)(F)F)c1)CN(c1cccc([C@@](C)(F)C(F)(F)c3nncn3C)c1)C2=O)N1CC[C@H](F)C1` [Compound 460, 6-((S)-1-((S)-3-fluoropyrrolidin-1-yl)ethyl)-2-(3-((R)-1,1,2-trifluoro-1-(4-methyl-4H-1,2,4-triazol-3-yl)propan-2-yl)phenyl)-4-(trifluoromethyl)isoindolin-1-one], the figures for the IC50 at Cbl-b [1] and on Cbl-b [4] were no more than 100 nM and less than 100 nM, respectively. Further, the fold induction at 0.3 µM is greater than 7.5 in the test with T-cell [2] and 1.31 to 1.5 in the test with T-cell [3]. In addition, the fold induction at 1 µM in the test with T-cell [2] was greater than 7.5; in the test with T-cell [3] it was 1.51 to 1.75; in the test on T-cell [5] it was greater than 0.201; in the test on T-cell [6] it was greater than 1. Moreover, the results for the fold induction at 4 µM with T-cell [2] and in the test with T-cell [3] were greater than 7.5 and 1.51 to 1.75, respectively. Besides, the fold induction at 8 µM in the test on T-cell [5] was greater than 0.201; with T-cell [6] it was greater than 1.
As for `Cn1cnnc1C(F)(F)[C@](C)(F)c1cccc(N2Cc3c(cc(CN4C[C@@H](F)[C@@H](F)C4)cc3C(F)(F)F)C2=O)c1` [Compound 461, 6-(((3R,7S)-3,4-difluoropyrrolidin-1-yl)methyl)-2-(3-((R)-1,1,2-trifluoro-1-(4-methyl-4H-1,2,4-triazol-3-yl)propan-2-yl)phenyl)-4-(trifluoromethyl)isoindolin-1-one], the IC50 on Cbl-b [1] is no more than 100 nM; at Cbl-b [4] it was less than 100 nM. In addition, the fold induction at 0.3 µM lay in the range of 2.51 to 5 in the test with T-cell [2] and 1.31 to 1.5 in the test with T-cell [3]. Further, the fold induction at 1 µM in the test with T-cell [2] was 5 to 7.5; with T-cell [3], 1.31 to 1.5; with T-cell [5] it was 0.151 to 0.2; in the test on T-cell [6], greater than 1. For the same compound, the fold induction at 4 µM is greater than 7.5 in the test with T-cell [2] and 1.51 to 1.75 with T-cell [3]. Besides, the fold induction at 8 µM is greater than 0.201 in the test on T-cell [5] and greater than 1 in the test on T-cell [6].
On to `Cn1cnnc1C(F)(F)C1(c2cccc(N3Cc4c(cc(CN5CC[C@H](F)C5)cc4C(F)(F)F)C3=O)c2)CC1` [Compound 462, (S)-2-(3-(1-(difluoro(4-methyl-4H-1,2,4-triazol-3-yl)methyl)cyclopropyl)phenyl)-6-((3-fluoropyrrolidin-1-yl)methyl)-4-(trifluoromethyl)isoindolin-1-one], for which the IC50 is no more than 100 nM on Cbl-b [1] and less than 100 nM at Cbl-b [4]. Further, the fold induction at 0.3 µM with T-cell [2] was in the range of 5 to 7.5; in the test on T-cell [3], 1.01 to 1.3. In addition, the fold induction at 1 µM in the test with T-cell [2] was greater than 7.5; with T-cell [3] it was 1.31 to 1.5; with T-cell [5], greater than 0.201; in the test with T-cell [6] it was greater than 1.
Consider `CC(c1cc2c(c(C(F)(F)F)c1)CN(c1cccc([C@H]3C[C@H]3c3nncn3C)c1)C2=O)N1CC[C@H](F)C1` (stereo partly drawn) [Compound 466, 6-(1-((S)-3-fluoropyrrolidin-1-yl)ethyl)-2-(3-((1S,2R)-2-(4-methyl-4H-1,2,4-triazol-3-yl)cyclopropyl)phenyl)-4-(trifluoromethyl)isoindolin-1-one], for which the IC50 on Cbl-b [1] was no more than 100 nM; at Cbl-b [4], less than 100 nM. Further, the fold induction at 0.3 µM in the test on T-cell [2] was 2.51 to 5; in the test on T-cell [3], 1.31 to 1.5. For the same compound, the fold induction at 1 µM is greater than 7.5 in the test with T-cell [2], 1.51 to 1.75 in the test on T-cell [3], greater than 0.201 with T-cell [5] and greater than 1 with T-cell [6]. The fold induction at 4 µM was greater than 7.5 with T-cell [2] and 1.51 to 1.75 in the test with T-cell [3]. Moreover, the fold induction at 8 µM was greater than 0.201 with T-cell [5] and greater than 1 with T-cell [6].
For the compound `CCOc1cc(N2Cc3c(cc(CN4CC[C@H](F)C4)cc3C(F)(F)F)C2=O)cc(C2(Cc3nncn3C)COC2)c1` [Compound 468, 2-(3-ethoxy-5-{3-[(4-methyl-4H-1,2,4-triazol-3-yl)methyl]oxetan-3-yl}phenyl)-6-{[(3×)-3-fluoropyrrolidin-1-yl]methyl}-4-(trifluoromethyl)-2,3-dihydro-1H-isoindol-1-one], the figures for the IC50 on Cbl-b [1] and at Cbl-b [4] were no more than 100 nM and less than 100 nM, respectively. Besides, the values for the fold induction at 0.3 µM in the test with T-cell [2] and in the test on T-cell [3] were 5 to 7.5 and 1.31 to 1.5, respectively. Also, the fold induction at 1 µM in the test on T-cell [2] is greater than 7.5; in the test with T-cell [3] it was 1.31 to 1.5; with T-cell [5], greater than 0.201; in the test on T-cell [6] it was greater than 1.
On to `CCOc1cc([C@@](C)(F)C(F)(F)c2nncn2C)cc(NC(=O)c2cc(C)nc(C3CC3)n2)n1` [Compound 469, 2-cyclopropyl-N-{6-ethoxy-4-[(2R)-1,1,2-trifluoro-1-(4-methyl-4H-1,2,4-triazol-3-yl)propan-2-yl]pyridin-2-yl}-6-methylpyrimidine-4-carboxamide], for which the IC50 was no more than 300 nM on Cbl-b [1] and 100 to 300 nM at Cbl-b [4]. Moreover, the fold induction at 0.3 µM in the test on T-cell [2] lay in the range of 1.01 to 2.5; in the test with T-cell [3], 1.01 to 1.3. For the same compound, the fold induction at 1 µM in the test on T-cell [2] lay in the range of 1.01 to 2.5; in the test with T-cell [3], 1.01 to 1.3; in the test on T-cell [5], 0.101 to 0.15; in the test on T-cell [6] it was 0.801 to 1.
For `Cn1cnnc1C[C@]1(c2cccc(N3Cc4c(cccc4C(F)(F)F)C3=O)c2)C[C@H](CO)C1` [Compound 470, 2-{3-[(1R,3R)-3-(hydroxymethyl)-1-[(4-methyl-4H-1,2,4-triazol-3-yl)methyl]cyclobutyl]phenyl}-4-(trifluoromethyl)-2,3-dihydro-1H-isoindol-1-one], the IC50 at Cbl-b [1] is no more than 300 nM; on Cbl-b [4], 100 to 300 nM. Moreover, the fold induction at 0.3 µM is 1.01 to 2.5 in the test on T-cell [2] and 1.31 to 1.5 in the test with T-cell [3]. Besides, the fold induction at 1 µM in the test on T-cell [2] was 2.51 to 5; in the test with T-cell [3], 1.51 to 1.75; with T-cell [5] it was 0.101 to 0.15; in the test with T-cell [6], 0.801 to 1. Further, the fold induction at 4 µM was in the range of 5 to 7.5 with T-cell [2] and 1.51 to 1.75 with T-cell [3]. Moreover, the fold induction at 8 µM was greater than 0.201 with T-cell [5] and greater than 1 in the test on T-cell [6].

By IC50 is commonly meant the concentration that gives 50% inhibition.

(Values after patent US20220324835A1 (Nurix Therapeutics, Inc., priority 2018, published 2022).)
